Patent publication US10611750B2, “Tetrahydroquinoline compositions as bet bromodomain inhibitors” (FORMA Therapeutics, Inc., priority 2013, dated 2020)

Assays:
[1] = molecular target: T1, BRD4 Bromodomain 1 (BRD4 BD1) (Homo sapiens, UniProt O60885); assay: AlphaScreen binding assay, BRD4 BD1; conditions: His-tagged BRD4 BD1 50 nM, biotinylated H4 (1-21) K5/8/12/16 tetra-acetylated peptide 50 nM, compounds listed under IC50 range headings
T1 construct: 44-168 and BRD4 BD2
Procedure, shortened: (§1)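 Compound dilution series were mixed with His-tagged BRD4 bromodomain and biotinylated tetra-acetylated H4 (1-21) peptide at pH 7.3 (BD1 and peptide at 50 nM, BD2 and peptide at 100 nM). Donor and acceptor beads were then added, and plates were equilibrated at least 1 h before reading. IC50 values were fitted with a four-parameter logistic model.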

[2] = molecular target: T2, BRD4 Bromodomain 2 (BRD4 BD2) (Homo sapiens, UniProt O60885); assay: AlphaScreen binding assay, BRD4 BD2; conditions: His-tagged BRD4 BD2 100 nM, biotinylated H4 (1-21) K5/8/12/16 tetra-acetylated peptide 100 nM, compounds listed under IC50 range headings
T2 construct: 333-460 were cloned, expressed, and purified to homogeneity
Procedure, shortened: as §1

[3] = system: acute myelocytic leukemia (AML) cell line MV4-11; assay: Oncology cell growth assay (3-day proliferation, CellTiter-Glo); assay type: cell-based; conditions: Homo sapiens, MV4-11, 72 h, MV4-11 cells, 3000 cells/well, compounds listed under IC50 range headings, read-out: MV411 IC50 (gIC50, inhibition of proliferation)
Procedure, shortened: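 A 3-day proliferation test used MV4-11 cells seeded at 3000 per well with eight compound concentrations (10 μM top, 3-fold dilution) at 37° C in 5% CO2. CellTiter-Glo luminescence defined viable cell signal. A four-parameter logistic curve against DMSO and background wells gave the gIC50.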

Row | IC50 [1] [nM] | IC50 [2] [nM] | IC50 [3] [nM] | Compound
1 | 100 to 1000 | < 50 | < 500 | CC(=O)N1c2ccc(-c3cnn(C4CC4)c3)c(OC3CCCC3)c2CC[C@@H]1C [I-396]
2 | 100 to 1000 | 50 to 500 | 500 to 1000 | COCCOc1c(-c2cnn(C3CC3)c2)ccc2c1CC[C@H](C)N2C(C)=O [I-398]
3 | 100 to 1000 | 50 to 500 | < 500 | CC(=O)N1c2ccc(-c3cnn(C4CC4)c3)c(OCC3CCOCC3)c2CC[C@@H]1C [I-400]
4 | 100 to 1000 | < 50 | < 500 | CC(=O)N1c2ccc(-c3cnn(C4CC4)c3)c(OCC(=O)N(C)C)c2CC[C@@H]1C [I-401]
5 | 100 to 1000 | 50 to 500 | 500 to 1000 | CC(=O)N1c2ccc(-c3cnn(C4CC4)c3)c(OCC3CCCCC3)c2CC[C@@H]1C [I-402]
6 | 100 to 1000 | < 50 | < 500 | CCCOc1c(-c2cnn(CCS(C)(=O)=O)c2)ccc2c1CC[C@H](C)N2C(C)=O [I-407]
7 | 100 to 1000 | < 50 | < 500 | CCCOc1c(-c2cnn(CC(C)(C)O)c2)ccc2c1CC[C@H](C)N2C(C)=O [I-408]
8 | 100 to 1000 | < 50 | < 500 | CC(=O)N1c2ccc(-c3cnn(CCS(C)(=O)=O)c3)c(OC3CCC3)c2CC[C@@H]1C [I-409]
9 | 1000 to 10000 | < 50 | < 500 | CC(=O)N1c2ccc(-c3cnn(CC(C)(C)O)c3)c(OC3CCC3)c2CC[C@@H]1C [I-410]
10 | 100 to 1000 | < 50 | < 500 | CC(=O)N1c2ccc(-c3cnn(CCO)c3)c(OC3CCC3)c2CC[C@@H]1C [I-411]
11 | 100 to 1000 | < 50 | < 500 | CC(=O)N1c2ccc(-c3cnn(C4CCNCC4)c3)c(OC3CCC3)c2CC[C@@H]1C [I-412]
12 | 100 to 1000 | 50 to 500 | < 500 | CC(=O)N1c2ccc(-c3cnn(CCS(C)(=O)=O)c3)c(OCC3CCOCC3)c2CC[C@@H]1C [I-413]
13 | < 100 | < 50 | < 500 | CC(=O)N1c2ccc(-c3cnn(CCO)c3)c(OCC3CCOCC3)c2CC[C@@H]1C [I-415]
14 | < 100 | < 50 | < 500 | CC(=O)N1c2ccc(-c3cnn(C4CCNCC4)c3)c(OCC3CCOCC3)c2CC[C@@H]1C [I-416]
15 | 100 to 1000 | < 50 | < 500 | CC(=O)N1c2ccc(-c3cnn(CCS(C)(=O)=O)c3)c(OCC(C)C)c2CC[C@@H]1C [I-420]
16 | 100 to 1000 | < 50 | < 500 | CC(=O)N1c2ccc(-c3cnn(CCO)c3)c(OCC(C)C)c2CC[C@@H]1C [I-422]
17 | < 100 | < 50 | < 500 | CC(=O)N1c2ccc(-c3cnn(C4CCNCC4)c3)c(OCC(C)C)c2CC[C@@H]1C [I-423]
18 | 100 to 1000 | < 50 | < 500 | CC(=O)N1c2ccc(-c3cnn(CCS(C)(=O)=O)c3)c(OCC3CCCC3)c2CC[C@@H]1C [I-424]
19 | 100 to 1000 | 50 to 500 | < 500 | CC(=O)N1c2ccc(-c3cnn(CC(C)(C)O)c3)c(OCC3CCCC3)c2CC[C@@H]1C [I-425]
20 | < 100 | < 50 | < 500 | CC(=O)N1c2ccc(-c3cnn(CCO)c3)c(OCC3CCCC3)c2CC[C@@H]1C [I-426]
21 | < 100 | < 50 | < 500 | CC(=O)N1c2ccc(-c3cnn(C4CCNCC4)c3)c(OCC3CCCC3)c2CC[C@@H]1C [I-427]
22 | 100 to 1000 | 50 to 500 | 500 to 1000 | CC(=O)N1c2ccc(-c3cnn(C4CCNCC4)c3)c(OCC(=O)N3CCCC3)c2CC[C@@H]1C [I-431]

Row | IC50 [1] [nM] | IC50 [2] [nM] | IC50 [3] [nM] | Compound
23 | 1000 to 10000 | < 50 | < 500 | CCCOc1c(-c2cnn(CC(C)(C)O)c2)ccc2c1CC[C@H](C)N2C(=O)OC [I-442]
24 | 1000 to 10000 | < 50 | < 500 | CCCOc1c(-c2cnn(CCO)c2)ccc2c1CC[C@H](C)N2C(=O)OC [I-443]
25 | 100 to 1000 | < 50 | < 500 | COC(=O)N1c2ccc(-c3cnn(CCS(C)(=O)=O)c3)c(OC3CCC3)c2CC[C@@H]1C [I-444]
26 | 1000 to 10000 | < 50 | < 500 | COC(=O)N1c2ccc(-c3cnn(CC(C)(C)O)c3)c(OC3CCC3)c2CC[C@@H]1C [I-445]
27 | 100 to 1000 | 50 to 500 | < 500 | COC(=O)N1c2ccc(-c3cnn(CCO)c3)c(OC3CCC3)c2CC[C@@H]1C [I-446]
28 | < 100 | < 50 | < 500 | COC(=O)N1c2ccc(-c3cnn(C4CCNCC4)c3)c(OC3CCC3)c2CC[C@@H]1C [I-447]
29 | 100 to 1000 | 50 to 500 | < 500 | COC(=O)N1c2ccc(-c3cnn(CC(C)(C)O)c3)c(OCC3CCOCC3)c2CC[C@@H]1C [I-449]
30 | 100 to 1000 | < 50 | < 500 | COC(=O)N1c2ccc(-c3cnn(C4CCNCC4)c3)c(OCC(C)C)c2CC[C@@H]1C [I-458]
31 | 100 to 1000 | 50 to 500 | > 1000 | COC(=O)N1c2ccc(-c3cnn(CCS(C)(=O)=O)c3)c(OCC3CCCC3)c2CC[C@@H]1C [I-459]
32 | 100 to 1000 | < 50 | 500 to 1000 | COC(=O)N1c2ccc(-c3cnn(CCO)c3)c(OCC3CCCC3)c2CC[C@@H]1C [I-461]
33 | 100 to 1000 | < 50 | 500 to 1000 | COC(=O)N1c2ccc(-c3cnn(C4CCNCC4)c3)c(OCC3CCCC3)c2CC[C@@H]1C [I-462]
34 | 100 to 1000 | 50 to 500 | > 1000 | COC(=O)N1c2ccc(-c3cnn(C4CCNCC4)c3)c(OCC(=O)N3CCCC3)c2CC[C@@H]1C [I-466]
35 | 1000 to 10000 | < 50 | > 1000 | CC(=O)N1c2ccc(-c3cnn(C4CC4)c3)c(OCc3ccncc3)c2CC[C@@H]1C [I-479]
36 | 1000 to 10000 | 50 to 500 | < 500 | CCCOc1c(-c2ccc(OCCN(C)C)cc2)ccc2c1CC[C@H](C)N2C(C)=O [I-486]
37 | 1000 to 10000 | ≥ 500 | > 1000 | CC(=O)N1c2ccc(-c3ccc(OCCN(C)C)cc3)c(OCC(=O)N(C)C)c2CC[C@@H]1C [I-487]
38 | 1000 to 10000 | 50 to 500 | > 1000 | CC(=O)N1c2ccc(-c3cccc(NS(C)(=O)=O)c3)c(OCC(=O)N(C)C)c2CC[C@@H]1C [I-491]
39 | 1000 to 10000 | 50 to 500 | > 1000 | CC(=O)N1c2ccc(-c3ccc4c(c3)CCN4S(C)(=O)=O)c(OCC(=O)N(C)C)c2CC[C@@H]1C [I-501]
40 | 1000 to 10000 | ≥ 500 | > 1000 | CCCOc1c(-c2cc3ccccc3o2)ccc2c1CC[C@H](C)N2C(C)=O [I-504]
41 | 100 to 1000 | < 50 | < 500 | CC(=O)N1c2ccc(-c3cnn(C4CCNCC4)c3)c(Oc3ncc(F)cn3)c2CC[C@@H]1C [I-511]
42 | 100 to 1000 | 50 to 500 | < 500 | CC(=O)N1c2ccc(-c3cnn(C4CCNCC4)c3)c(Oc3ccc(C(F)(F)F)cn3)c2CC[C@@H]1C [I-512]
43 | 1000 to 10000 | 50 to 500 | < 500 | CC(=O)N1c2ccc(-c3cnn(C4CCNCC4)c3)c(Oc3ncccn3)c2CC[C@@H]1C [I-513]
